Results on 14 compounds are retold here after patent US10918642B2, “N-(substituted-phenyl)-sulfonamide derivatives as kinase inhibitors” (Nerviano Medical Sciences S.R.L., priority 2016, dated 2021).

Each structure is given as a SMILES string.

Chain of PERK recombinant enzyme (cytoplasmic domain corresponding to residues 540-1115) (Q9NZJ5 540-1115): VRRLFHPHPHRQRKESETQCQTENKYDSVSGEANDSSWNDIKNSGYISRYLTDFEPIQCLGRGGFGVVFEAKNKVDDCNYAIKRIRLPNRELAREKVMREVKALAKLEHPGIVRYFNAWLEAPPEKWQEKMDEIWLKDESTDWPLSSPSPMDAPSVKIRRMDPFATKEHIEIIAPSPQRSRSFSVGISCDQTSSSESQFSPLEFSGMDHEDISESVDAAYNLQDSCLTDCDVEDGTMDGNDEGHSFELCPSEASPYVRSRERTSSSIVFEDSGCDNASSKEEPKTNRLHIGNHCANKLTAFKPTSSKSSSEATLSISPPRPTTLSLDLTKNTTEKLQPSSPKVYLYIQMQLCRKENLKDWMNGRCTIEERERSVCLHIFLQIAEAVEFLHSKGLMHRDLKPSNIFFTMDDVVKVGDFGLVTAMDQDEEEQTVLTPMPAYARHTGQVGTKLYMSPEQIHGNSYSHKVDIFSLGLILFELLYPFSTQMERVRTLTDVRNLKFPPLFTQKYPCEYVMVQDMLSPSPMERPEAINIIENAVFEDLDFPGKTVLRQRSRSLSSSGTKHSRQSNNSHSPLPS

The experiment deals with PERK recombinant enzyme (cytoplasmic domain corresponding to residues 540-1115) (Homo sapiens (Human), UniProt Q9NZJ5). Nature of the experiment: PERK enzyme assay, Method 2: quantification of phosphorylated product with ATP/P33 gammaATP (Dowex resin). The conditions noted are these: Method 2 (P33 gammaATP radiometric); 52 microM ATP, 8 nM PERK, 300 microM eIF2alpha peptide substrate, 60 minutes at room temperature. The class given is biochemical. The procedure:
The biochemical activity of compounds was determined by incubation with PERK recombinant enzyme (cytoplasmic domain corresponding to residues 540-1115) and elF2alpha peptide substrate (Aminoacid sequence: LLSELSRRRIRSINK—SEQ ID Nr: 1; purchased from American Peptide Company, product #341923). This was followed by:
Method 2: Quantification of the Phosphorylated Product Formed from the Kinase Reaction in Presence of ATP (Aldrich, Cat #A2620-9).
Serially diluted compounds were incubated for 60 minutes at room temperature in the presence of ATP/P^33 gammaATP mix, substrate and enzyme in a volume of 15 microL of kinase buffer in 384-well plates (Thermo Scientific, cat #4312).
The reaction volume contains, in final concentration, 52 microM ATP, 8 nM PERK and 300 microM substrate in 50 mM Hepes pH 7.5, 3 mM MgCl2, 1 mM DTT, 3 microM Na3VO4, 0.2 mg/ml BSA. The final concentration of DMSO was 1%.
At the end of the incubation, an amount of 60 microL of Dowex resin (Sigma, customized resin 1×8 200-400 mesh cat #13858-U) in 150 mM sodium formate buffer pH=3.0 was added to stop the reaction and capture unreacted ATP/P^33 gammaATP, separating it from the phosphorylated substrate in solution. After 60 minutes of rest, a volume of 22 microL of supernatant was transferred into 384-Optiplates (Perkin-Elmer, cat #6007290). After the addition of 50 microL of Microscint 40 (Perkin-Elmer, cat #6013641), the radioactivity was counted in the TopCount (Perkin Elmer).
The data per each molecule are analyzed by an internally customized version of the SW package “Assay Explorer”, or by GraphPad Prizm software alternatively, which provides sigmoidal fittings of the curves for IC50 determination using a 4 parameter logistic equation: y=bottom+(top−bottom)/(1+10^((log IC50−x)*slope))
where x is the logarithm of the inhibitor concentration, y is the response; y starts at bottom and goes to top with a sigmoid shape.
On to `COc1cc(F)c(S(=O)(=O)Nc2cccc(-c3nn(C4CCNCC4)c4ncnc(N)c34)c2F)cc1Cl` [cmpd 62, N-[3-(4-Amino-1-piperidin-4-yl-1H-pyrazolo[3,4-d]pyrimidin-3-yl)-2-fluoro-phenyl]-5-chloro-2-fluoro-4-methoxy-benzenesulfonamide], for which the IC50 was 15.8 to 50.1 nM.
For the compound `COc1cc(S(=O)(=O)Nc2cccc(-c3cn(C)c4ncnc(N)c34)c2F)c(F)cc1Cl` [cmpd 79, N-[3-(4-Amino-7-methyl-7H-pyrrolo[2,3-d]pyrimidin-5-yl)-2-fluoro-phenyl]-4-chloro-2-fluoro-5-methoxy-benzenesulfonamide], the IC50 is 15.8 to 50.1 nM.
With `COc1cc(F)c(S(=O)(=O)Nc2cccc(-c3nn(C4CCN(C(=O)OC(C)(C)C)CC4)c4ncnc(N)c34)c2F)cc1Cl` [cmpd 10, 4-{4-Amino-3-[3-(5-chloro-2-fluoro-4-methoxy-benzenesulfonylamino)-2-fluoro-phenyl]-pyrazolo[3,4-d]pyrimidin-1-yl}-piperidine-1-carboxylic acid tert-butyl ester], the pIC50 entry is “C (pIC50 < 6.8)”.
In the case of `COc1ccc(S(=O)(=O)Nc2cccc(-c3nn(C4CCN(C(=O)OC(C)(C)C)CC4)c4ncnc(N)c34)c2F)cc1Cl` [cmpd 11, 4-{4-Amino-3-[3-(3-chloro-4-methoxy-benzenesulfonylamino)-2-fluoro-phenyl]-pyrazolo[3,4-d]pyrimidin-1-yl}-piperidine-1-carboxylic acid tert-butyl ester], the pIC50 entry was “C (pIC50 < 6.8)”.
On to `COc1cc(F)c(S(=O)(=O)Nc2cccc(-c3cn(C)c4ncnc(N)c34)c2C#N)cc1Cl` [cmpd 90, N-[3-(4-Amino-7-methyl-7H-pyrrolo[2,3-d]pyrimidin-5-yl)-2-cyano-phenyl]-5-chloro-2-fluoro-4-methoxy-benzenesulfonamide], for which the IC50 is 50.1 to 158 nM.
Same read-out and setting: the value for `COc1cc(F)c(S(=O)(=O)Nc2cccc(-c3nn(C4CCN(C)CC4)c4ncnc(N)c34)c2F)cc1Cl` [cmpd 61, N-{3-[4-Amino-1-(1-methyl-piperidin-4-yl)-1H-pyrazolo[3,4-d]pyrimidin-3-yl]-2-fluoro-phenyl}-5-chloro-2-fluoro-4-methoxy-benzenesulfonamide] was 15.8 to 50.1 nM.
Regarding `COc1cc(F)c(S(=O)(=O)Nc2cccc(-c3cn(C4CCN(C)CC4)c4ncnc(N)c34)c2F)cc1C` [cmpd 73, N-{3-[4-Amino-7-(1-methyl-piperidin-4-yl)-7H-pyrrolo[2,3-d]pyrimidin-5-yl]-2-fluoro-phenyl}-2-fluoro-4-methoxy-5-methyl-benzenesulfonamide], the pIC50 result was “AA (7.8 ≤ pIC50)”.
Regarding `COc1ccc(S(=O)(=O)Nc2cccc(-c3nn(C4CCNCC4)c4ncnc(N)c34)c2F)cc1Cl` [cmpd 63, N-[3-(4-Amino-1-piperidin-4-yl-1H-pyrazolo[3,4-d]pyrimidin-3-yl)-2-fluoro-phenyl]-3-chloro-4-methoxy-benzenesulfonamide], the IC50 is 15.8 to 50.1 nM.
Regarding `COc1cc(F)c(S(=O)(=O)Nc2cccc(-c3nn(C4CCN(C(C)C)CC4)c4ncnc(N)c34)c2F)cc1Cl` [cmpd 65, N-{3-[4-Amino-1-(1-isopropyl-piperidin-4-yl)-1H-pyrazolo[3,4-d]pyrimidin-3-yl]-2-fluoro-phenyl}-5-chloro-2-fluoro-4-methoxy-benzenesulfonamide], the IC50 was 50.1 to 158 nM.
Take `Cn1cc(-c2cccc(NS(=O)(=O)C3CCCCC3)c2F)c2c(N)ncnc21` [cmpd 89, Cyclohexanesulfonic acid [3-(4-amino-7-methyl-7H-pyrrolo[2,3-d]pyrimidin-5-yl)-2-fluoro-phenyl]-amide]: the pIC50 result is recorded as “C (pIC50 < 6.8)”.
As to `CN1CCC(n2cc(-c3cccc(NS(=O)(=O)c4ccc(Br)cc4F)c3F)c3c(N)ncnc32)CC1` [cmpd 72, N-{3-[4-Amino-7-(1-methyl-piperidin-4-yl)-7H-pyrrolo[2,3-d]pyrimidin-5-yl]-2-fluoro-phenyl}-4-bromo-2-fluoro-benzenesulfonamide], the IC50 was 15.8 to 50.1 nM.
On the same count and under the same terms, the same measure for `CN1CCC(n2cc(-c3cccc(NS(=O)(=O)c4ccc(Br)s4)c3F)c3c(N)ncnc32)CC1` [cmpd 77, 5-Bromo-thiophene-2-sulfonic acid {3-[4-amino-7-(1-methyl-piperidin-4-yl)-7H-pyrrolo[2,3-d]pyrimidin-5-yl]-2-fluoro-phenyl}-amide]: 15.8 to 50.1 nM; for `COc1ccc(S(=O)(=O)Nc2cccc(-c3nn(C4CCN(C)CC4)c4ncnc(N)c34)c2F)cc1Cl` [cmpd 66, N-{3-[4-Amino-1-(1-methyl-piperidin-4-yl)-1H-pyrazolo[3,4-d]pyrimidin-3-yl]-2-fluoro-phenyl}-3-chloro-4-methoxy-benzenesulfonamide]: 50.1 to 158 nM.
As for `CN1CCC(n2cc(-c3cccc(NS(=O)(=O)c4ccc(Cl)c(Cl)c4)c3F)c3c(N)ncnc32)CC1` [cmpd 71, N-{3-[4-Amino-7-(1-methyl-piperidin-4-yl)-7H-pyrrolo[2,3-d]pyrimidin-5-yl]-2-fluoro-phenyl}-3,4-dichloro-benzenesulfonamide], the pIC50 result was “AA (7.8 ≤ pIC50)”.

As a reminder, the IC50 is the point on the concentration scale where inhibition reaches its midpoint.
